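Results reflect a 48-hour exposure of cells in 96-well plates to compound at five concentrations. The concentration for 50% growth inhibition is given as GI50. TGI: total growth inhibition.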
Columns and labels:
Experiment in all cases: NCI tumour cell line growth inhibition, 48 h
[1] = tested on: MDA-N
[2] = tested on: DMS 114 small cell lung
[3] = tested on: LXFL 529 NSCLC
[4] = tested on: DMS 273 small cell lung
[5] = tested on: SNB-78 CNS
[6] = tested on: HOP-18 NSCLC
[7] = tested on: M19-MEL melanoma
[8] = tested on: XF 498 CNS
[9] = tested on: RXF-631 renal

Compound | TGI [1] [µM] | TGI [2] [µM] | TGI [3] [µM] | TGI [4] [µM] | TGI [5] [µM] | TGI [6] [µM] | TGI [7] [µM] | TGI [8] [µM] | also measured
Clc1ccc(N/N=C(\c2ccccc2)c2ccccn2)nc1 | 26.5 | – | – | – | – | – | – | – | –
COC1C(O)CC(OC2CC(OC3CC(O[C@@H]4C(=O)c5c(cc6cc(OC7CC(OC8CC(O)C(O)C(C)O8)C(O)C(C)O7)c(C)c(O)c6c5O)C[C@H]4[C@H](OC)C(=O)[C@@H](O)[C@@H](C)O)OC(C)C3O)OC(C)C2O)OC1C (some centres not stated) | – | 4.5 | > 100 | 1.67 | > 100 | 36 | > 100 | 0.191 | –
COc1ccc(C2N3CCCCC3[C@@H]3c4[nH]c5ccccc5c4CCN23)c(OC)c1 (some centres not stated) | – | 38.4 | 49.9 | 34.3 | 49 | > 100 | 37.4 | 28.2 | –
CN(N=O)C(=O)Nc1ccc(C(=O)O)cc1 | > 100 | – | – | – | – | – | – | – | –
COC(=O)[C@@H]1[C@H](O)[C@H](C)[C@H](O)[C@H](C)/C=C\C=C(C)C(=O)Nc2c(C)c(OC(C)=O)c3c(c2O)C(=O)C(C)=C2OCOC(=C23)C(C)=C[C@@](C)(O)[C@H](O)[C@@H](C)[C@H]1OC(C)=O | 41.9 | – | – | – | – | – | – | – | –
O=C([CH-]C(=O)c1ccccc1)c1ccccc1.[CH3-].[CH3-].[CH3-].[Sn+4] | – | – | – | – | – | > 100 | – | – | GI50 [6]: 39 µM
Oc1c(Cl)cc(CN(Cc2cc(Cl)c(O)c(Cl)c2)C2CCCCC2)cc1Cl | > 100 | – | – | – | – | – | – | – | –
Cc1cccc(Cl)c1NC(=O)c1cccc([N+](=O)[O-])c1O | – | 83.1 | > 100 | > 100 | > 100 | > 100 | – | > 100 | TGI [9]: > 100 µM
Cc1cccc2c(N=Nc3ccccc3[N+](=O)[O-])c(O)[nH]c12 | > 100 | – | – | – | – | – | – | – | –
O=[N+]([O-])c1ccc2nc3ccscc-3c2c1 | – | 39.6 | 27.3 | > 100 | 90 | > 100 | 61.8 | 87.2 | TGI [9]: > 100 µM
Cc1ccccc1NC(=O)C(=O)CC(=O)C1CCOC1=O (configuration not stated) | – | > 100 | > 100 | > 100 | > 100 | > 100 | > 100 | > 100 | –
CCOC(=O)N1CCc2cc(OC)c(OC)cc2/C1=C/c1ccc(OC)c(OC)c1 | – | > 100 | > 100 | > 100 | > 100 | > 100 | > 100 | 98 | –
CC(C)(C)c1cc(-c2c3nc(c(-c4cc(C(C)(C)C)cc(C(C)(C)C)c4)c4ccc([nH]4)c(-c4cc(C(C)(C)C)cc(C(C)(C)C)c4)c4nc(c(-c5cc(C(C)(C)C)cc(C(C)(C)C)c5)c5ccc2[nH]5)C=C4)C=C3)cc(C(C)(C)C)c1 | – | > 100 | > 100 | > 100 | > 100 | > 100 | – | > 100 | TGI [9]: > 100 µM
CC1=C/C(O)CC(=O)Cc2nc(co2)C(=O)N2CCC=C2C(=O)OC(C(C)C)C(C)/C=C\C(=O)NC/C=C\1 (configuration not stated) | 67.9 | – | – | – | – | – | – | – | –
Cc1cccc2cc3cccc(C(=O)NCCN(C)C)c3nc12 | – | 1.02 | 10.6 | 0.926 | 11.4 | 9.35 | 0.847 | – | TGI [9]: 27.7 µM
CC(C)C[C@H]1C(=O)N2CCC[C@H]2[C@]2(O)O[C@](NC(=O)[C@@H]3C=C4c5cccc6[nH]c(Br)c(c56)C[C@H]4N(C)C3)(C(C)C)C(=O)N12 | > 100 | – | – | – | – | – | – | – | –
C/C(=C1/N=C(c2ccccc2)OC1=O)c1ccccc1 | > 100 | – | – | – | – | – | – | – | –
C/C=C/C=C/CCCCCCCCCCCCC[C@]1(OC)C=CC(CC(=O)OC)OO1 (some centres not stated) | – | – | 28.2 | – | – | – | 33 | 44.6 | GI50 [3]: 14.7 µM; GI50 [9]: 24 µM; TGI [9]: 56 µM; GI50 [8]: 24.2 µM
COc1cc(/C=C2\NC(=S)C3Cc4c(OC)c(C)c(OC)c(OC)c4C2N3C)c(OC)c(C)c1OC (configuration not stated) | – | 92.1 | > 100 | > 100 | – | > 100 | > 100 | – | –
O=C1c2ccccc2C(=O)c2sc(Nc3ccc(Cl)cc3)nc21 | – | 3.63 | 3.1 | 3.74 | 8.03 | 7.26 | 1.56 | 4.7 | –
Nc1cc(N)cc(Cc2ccccc2)c1 | > 100 | – | – | – | – | – | – | – | –

From PubChem BioAssay (NCI)
